Source: PMC9653409, “Generative deep learning enables the discovery of a potent and selective RIPK1 inhibitor” (Nature Communications, 2022)

What was measured:
Test in all cases: Kinase inhibitory activity profiling of RI-962@10 µM (406 kinases, Eurofins)
Assay type in all cases: biochemical
[1] = target: panel of human kinases (kinase named in endpoint) (Homo sapiens, UniProt Q16566); conditions: 10 µM; read-out: Activity (%), CaMKIV(h)
In short: (§1)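 Radiometric filter-binding kinase assays: enzyme preincubated 15 min with compound in 8 mM MOPS pH 7.0, 0.2 mM EDTA, 250 μM peptide substrate, 10 mM magnesium acetate, 10 μM [γ-33P]-ATP. Reaction started with Mg/ATP, run 40 min at room temperature, stopped with phosphoric acid; 33P incorporation read by scintillation counting. Other kinases by similar protocols.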

[2] = target: panel of human kinases (kinase named in endpoint) (Homo sapiens, UniProt Q8WU08); conditions: 10 µM; read-out: Activity (%), STK32A(h)
In short: as §1

[3] = target: panel of human kinases (kinase named in endpoint) (Homo sapiens, UniProt P78368); conditions: 10 µM; read-out: Activity (%), CK1γ2(h)
In short: as §1

[4] = target: panel of human kinases (kinase named in endpoint) (Homo sapiens, UniProt Q9UM73); conditions: 10 µM; read-out: Activity (%), ALK(h)
In short: as §1

[5] = target: panel of human kinases (kinase named in endpoint) (Homo sapiens, UniProt Q8NE63); conditions: 10 µM; read-out: Activity (%), HIPK4(h)
In short: as §1

[6] = target: panel of human kinases (kinase named in endpoint) (Homo sapiens, UniProt O15264); conditions: 10 µM; read-out: Activity (%), SAPK4(h)
In short: as §1

[7] = target: panel of human kinases (kinase named in endpoint) (Homo sapiens, UniProt P42336, E545K); conditions: 10 µM; read-out: Activity (%), PI3(p110a(E545K)/p85a)
panel of human kinases (kinase named in endpoint) (Homo sapiens, UniProt P42336, E545K), sequence (P42336 whole entry E545K): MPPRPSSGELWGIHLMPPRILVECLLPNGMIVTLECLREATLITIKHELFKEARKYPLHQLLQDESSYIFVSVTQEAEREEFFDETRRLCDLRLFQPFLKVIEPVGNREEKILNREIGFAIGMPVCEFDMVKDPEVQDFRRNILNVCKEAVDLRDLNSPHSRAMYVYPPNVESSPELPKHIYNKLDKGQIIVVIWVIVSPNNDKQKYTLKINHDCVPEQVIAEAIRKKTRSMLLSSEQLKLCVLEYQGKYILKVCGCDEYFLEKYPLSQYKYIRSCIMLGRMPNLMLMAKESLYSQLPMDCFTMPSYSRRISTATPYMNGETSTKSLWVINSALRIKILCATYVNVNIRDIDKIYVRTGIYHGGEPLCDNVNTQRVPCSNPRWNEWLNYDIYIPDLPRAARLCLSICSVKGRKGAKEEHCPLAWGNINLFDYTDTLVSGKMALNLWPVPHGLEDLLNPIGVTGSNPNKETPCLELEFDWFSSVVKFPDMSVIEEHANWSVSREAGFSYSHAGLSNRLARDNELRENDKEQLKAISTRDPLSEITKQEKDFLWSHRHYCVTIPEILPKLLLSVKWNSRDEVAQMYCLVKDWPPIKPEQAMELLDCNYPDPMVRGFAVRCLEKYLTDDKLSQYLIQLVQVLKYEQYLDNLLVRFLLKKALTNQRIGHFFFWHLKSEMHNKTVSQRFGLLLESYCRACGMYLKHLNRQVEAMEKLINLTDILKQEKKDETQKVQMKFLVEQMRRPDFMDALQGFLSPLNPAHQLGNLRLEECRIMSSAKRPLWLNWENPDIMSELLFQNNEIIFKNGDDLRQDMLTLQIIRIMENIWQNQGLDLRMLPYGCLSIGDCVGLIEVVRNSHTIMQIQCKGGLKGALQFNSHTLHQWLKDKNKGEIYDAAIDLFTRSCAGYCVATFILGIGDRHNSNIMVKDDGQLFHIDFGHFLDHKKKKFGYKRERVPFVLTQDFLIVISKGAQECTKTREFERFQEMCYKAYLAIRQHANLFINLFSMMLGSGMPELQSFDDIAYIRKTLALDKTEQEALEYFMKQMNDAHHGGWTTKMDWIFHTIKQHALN
In short: as §1

[8] = target: panel of human kinases (kinase named in endpoint) (Homo sapiens, UniProt P51956); conditions: 10 µM; read-out: Activity (%), NEK3(h)
In short: as §1

[9] = target: panel of human kinases (kinase named in endpoint) (Homo sapiens, UniProt P00533, L858R); conditions: 10 µM; read-out: Activity (%), EGFR(L858R)(h)
In short: as §1

[10] = target: panel of human kinases (kinase named in endpoint) (Homo sapiens, UniProt Q9HBH9); conditions: 10 µM; read-out: Activity (%), Mnk2(h)
panel of human kinases (kinase named in endpoint) (Homo sapiens, UniProt Q9HBH9), sequence (Q9HBH9 whole entry): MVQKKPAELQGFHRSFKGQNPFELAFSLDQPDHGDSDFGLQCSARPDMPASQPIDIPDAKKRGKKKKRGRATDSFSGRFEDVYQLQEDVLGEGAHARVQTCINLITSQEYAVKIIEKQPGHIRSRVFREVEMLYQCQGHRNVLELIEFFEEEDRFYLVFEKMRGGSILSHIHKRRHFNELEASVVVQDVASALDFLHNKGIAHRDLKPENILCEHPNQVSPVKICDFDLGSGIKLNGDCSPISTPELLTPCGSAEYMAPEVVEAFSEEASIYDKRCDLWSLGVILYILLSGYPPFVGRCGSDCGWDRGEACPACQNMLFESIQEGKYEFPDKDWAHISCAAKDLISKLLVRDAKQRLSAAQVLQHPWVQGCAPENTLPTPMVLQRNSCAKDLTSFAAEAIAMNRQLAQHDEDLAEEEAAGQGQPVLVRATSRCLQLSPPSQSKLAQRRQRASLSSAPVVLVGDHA
In short: as §1

[11] = target: panel of human kinases (kinase named in endpoint) (Homo sapiens, UniProt Q9UHD2); conditions: 10 µM; read-out: Activity (%), TBK1(h)
In short: as §1

[12] = target: panel of human kinases (kinase named in endpoint) (Homo sapiens, UniProt Q16644); conditions: 10 µM; read-out: Activity (%), MAPKAP-K3(h)
panel of human kinases (kinase named in endpoint) (Homo sapiens, UniProt Q16644), sequence (Q16644 whole entry): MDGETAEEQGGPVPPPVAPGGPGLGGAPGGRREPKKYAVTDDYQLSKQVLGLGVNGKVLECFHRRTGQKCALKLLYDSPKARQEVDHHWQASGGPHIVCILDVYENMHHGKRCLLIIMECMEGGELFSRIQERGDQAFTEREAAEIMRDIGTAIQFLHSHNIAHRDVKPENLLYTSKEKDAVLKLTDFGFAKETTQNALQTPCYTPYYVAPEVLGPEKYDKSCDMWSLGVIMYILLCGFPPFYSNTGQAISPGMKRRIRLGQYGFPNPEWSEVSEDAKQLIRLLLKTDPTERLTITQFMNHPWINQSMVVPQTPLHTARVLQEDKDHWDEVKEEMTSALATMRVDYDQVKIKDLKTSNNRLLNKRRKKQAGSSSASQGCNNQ
In short: as §1

[13] = target: panel of human kinases (kinase named in endpoint) (Homo sapiens, UniProt P10398); conditions: 10 µM; read-out: Activity (%), A-Raf(h)
In short: as §1

[14] = target: panel of human kinases (kinase named in endpoint) (Homo sapiens, UniProt P21802); conditions: 10 µM; read-out: Activity (%), FGFR2(h)
panel of human kinases (kinase named in endpoint) (Homo sapiens, UniProt P21802), sequence (P21802 22-821): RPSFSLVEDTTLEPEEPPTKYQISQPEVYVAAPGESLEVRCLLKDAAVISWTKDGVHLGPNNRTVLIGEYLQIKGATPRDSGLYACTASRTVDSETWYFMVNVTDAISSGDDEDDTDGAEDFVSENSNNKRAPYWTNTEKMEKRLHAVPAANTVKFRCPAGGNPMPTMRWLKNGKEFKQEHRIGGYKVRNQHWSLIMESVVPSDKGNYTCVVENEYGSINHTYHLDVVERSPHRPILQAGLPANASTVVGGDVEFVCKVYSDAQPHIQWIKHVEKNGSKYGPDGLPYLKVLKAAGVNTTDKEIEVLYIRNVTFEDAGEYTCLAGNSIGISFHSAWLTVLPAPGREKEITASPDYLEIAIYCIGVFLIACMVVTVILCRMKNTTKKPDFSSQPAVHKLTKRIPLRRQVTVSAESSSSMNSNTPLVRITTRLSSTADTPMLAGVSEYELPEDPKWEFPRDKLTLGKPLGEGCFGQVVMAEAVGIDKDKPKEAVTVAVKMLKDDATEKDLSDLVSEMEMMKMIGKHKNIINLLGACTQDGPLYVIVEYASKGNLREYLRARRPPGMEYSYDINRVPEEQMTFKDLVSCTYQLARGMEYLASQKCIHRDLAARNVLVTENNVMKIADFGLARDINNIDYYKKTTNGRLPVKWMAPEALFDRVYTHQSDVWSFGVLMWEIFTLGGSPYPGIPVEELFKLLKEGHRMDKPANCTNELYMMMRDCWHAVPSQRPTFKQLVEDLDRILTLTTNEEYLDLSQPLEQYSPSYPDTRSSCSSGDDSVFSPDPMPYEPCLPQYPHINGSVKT
In short: as §1

[15] = target: panel of human kinases (kinase named in endpoint) (Homo sapiens, UniProt P10721); conditions: 10 µM; read-out: Activity (%), cKit(h)
panel of human kinases (kinase named in endpoint) (Homo sapiens, UniProt P10721), sequence (P10721 26-976): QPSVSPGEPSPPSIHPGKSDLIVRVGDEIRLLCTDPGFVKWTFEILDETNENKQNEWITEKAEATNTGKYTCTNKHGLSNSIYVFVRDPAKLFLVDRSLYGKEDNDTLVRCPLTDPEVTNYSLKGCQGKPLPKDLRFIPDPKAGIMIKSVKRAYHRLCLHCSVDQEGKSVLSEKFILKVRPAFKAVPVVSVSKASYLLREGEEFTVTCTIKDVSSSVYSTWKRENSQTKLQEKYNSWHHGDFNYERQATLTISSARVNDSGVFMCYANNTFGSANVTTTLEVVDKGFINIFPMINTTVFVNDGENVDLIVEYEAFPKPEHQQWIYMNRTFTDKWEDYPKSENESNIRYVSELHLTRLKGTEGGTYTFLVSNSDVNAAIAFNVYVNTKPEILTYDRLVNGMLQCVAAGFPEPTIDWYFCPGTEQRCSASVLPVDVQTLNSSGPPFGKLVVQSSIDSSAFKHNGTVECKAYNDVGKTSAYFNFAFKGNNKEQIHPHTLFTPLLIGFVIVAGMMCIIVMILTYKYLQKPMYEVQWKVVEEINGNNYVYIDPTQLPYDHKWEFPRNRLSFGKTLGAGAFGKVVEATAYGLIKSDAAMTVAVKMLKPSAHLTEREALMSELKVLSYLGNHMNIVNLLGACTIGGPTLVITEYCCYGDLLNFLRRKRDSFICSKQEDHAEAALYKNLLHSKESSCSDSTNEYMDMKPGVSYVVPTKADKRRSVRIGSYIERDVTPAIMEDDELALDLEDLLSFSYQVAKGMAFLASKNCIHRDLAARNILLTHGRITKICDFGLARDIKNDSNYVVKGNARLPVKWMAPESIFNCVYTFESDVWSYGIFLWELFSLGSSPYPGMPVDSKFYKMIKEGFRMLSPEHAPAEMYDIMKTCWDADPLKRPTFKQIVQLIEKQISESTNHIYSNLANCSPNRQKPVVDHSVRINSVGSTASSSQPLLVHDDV
In short: as §1

[16] = target: panel of human kinases (kinase named in endpoint) (Homo sapiens, UniProt P28482); conditions: 10 µM; read-out: Activity (%), MAPK2(h)
panel of human kinases (kinase named in endpoint) (Homo sapiens, UniProt P28482), sequence (P28482 whole entry): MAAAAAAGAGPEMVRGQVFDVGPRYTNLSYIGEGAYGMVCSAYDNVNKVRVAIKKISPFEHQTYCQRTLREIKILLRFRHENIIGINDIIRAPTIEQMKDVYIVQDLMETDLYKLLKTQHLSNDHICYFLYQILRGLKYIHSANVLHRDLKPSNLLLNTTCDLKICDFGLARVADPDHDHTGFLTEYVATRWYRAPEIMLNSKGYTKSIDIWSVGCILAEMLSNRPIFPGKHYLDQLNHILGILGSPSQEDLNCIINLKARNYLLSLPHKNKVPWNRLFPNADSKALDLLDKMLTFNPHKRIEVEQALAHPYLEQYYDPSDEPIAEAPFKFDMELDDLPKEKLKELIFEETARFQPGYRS
In short: as §1

[17] = target: panel of human kinases (kinase named in endpoint) (Homo sapiens, UniProt P00519); conditions: 10 µM; read-out: Activity (%), Abl(h)
In short: as §1

[18] = target: panel of human kinases (kinase named in endpoint) (Homo sapiens, UniProt P51812); conditions: 10 µM; read-out: Activity (%), Rsk2(h)
In short: as §1

[19] = target: panel of human kinases (kinase named in endpoint) (Homo sapiens, UniProt Q16512); conditions: 10 µM; read-out: Activity (%), PRK1(h)
In short: as §1

[20] = target: panel of human kinases (kinase named in endpoint) (Homo sapiens, UniProt P16591); conditions: 10 µM; read-out: Activity (%), Fer(h)
panel of human kinases (kinase named in endpoint) (Homo sapiens, UniProt P16591), sequence (P16591 whole entry): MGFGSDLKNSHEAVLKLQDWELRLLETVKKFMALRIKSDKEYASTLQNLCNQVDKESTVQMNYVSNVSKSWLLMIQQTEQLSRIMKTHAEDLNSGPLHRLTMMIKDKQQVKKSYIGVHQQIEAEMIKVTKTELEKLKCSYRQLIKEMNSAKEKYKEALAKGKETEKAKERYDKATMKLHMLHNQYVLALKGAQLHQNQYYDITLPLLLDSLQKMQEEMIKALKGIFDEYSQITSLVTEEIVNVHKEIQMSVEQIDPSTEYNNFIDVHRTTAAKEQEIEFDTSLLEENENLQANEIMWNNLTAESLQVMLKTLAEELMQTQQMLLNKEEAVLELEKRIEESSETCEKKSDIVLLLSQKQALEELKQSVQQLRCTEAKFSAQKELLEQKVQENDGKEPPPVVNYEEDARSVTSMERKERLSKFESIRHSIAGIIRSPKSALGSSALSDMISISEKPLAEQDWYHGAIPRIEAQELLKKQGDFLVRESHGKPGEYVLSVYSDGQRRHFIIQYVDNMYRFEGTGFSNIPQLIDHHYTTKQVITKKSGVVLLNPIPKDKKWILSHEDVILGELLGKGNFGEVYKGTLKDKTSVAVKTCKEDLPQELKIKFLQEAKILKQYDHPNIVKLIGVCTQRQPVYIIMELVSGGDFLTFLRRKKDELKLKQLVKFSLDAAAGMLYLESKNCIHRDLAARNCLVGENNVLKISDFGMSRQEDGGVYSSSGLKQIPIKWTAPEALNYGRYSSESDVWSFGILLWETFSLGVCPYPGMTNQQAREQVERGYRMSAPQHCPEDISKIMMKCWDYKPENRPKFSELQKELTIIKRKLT
In short: as §1

[21] = target: panel of human kinases (kinase named in endpoint) (Homo sapiens, UniProt P43403); conditions: 10 µM; read-out: Activity (%), ZAP-70(h)
In short: as §1

[22] = target: panel of human kinases (kinase named in endpoint) (Homo sapiens, UniProt P10721, D816V); conditions: 10 µM; read-out: Activity (%), cKit(D816V)(h)
panel of human kinases (kinase named in endpoint) (Homo sapiens, UniProt P10721, D816V), sequence (P10721 26-976 D816V): as the sequence (P10721 26-976) above, with D791V counted along it
In short: as §1

[23] = target: panel of human kinases (kinase named in endpoint) (Homo sapiens, UniProt P51955); conditions: 10 µM; read-out: Activity (%), NEK2(h)
In short: as §1

[24] = target: panel of human kinases (kinase named in endpoint) (Homo sapiens, UniProt P53350); conditions: 10 µM; read-out: Activity (%), Plk1(h)
In short: as §1

[25] = target: panel of human kinases (kinase named in endpoint) (Homo sapiens, UniProt P11309); conditions: 10 µM; read-out: Activity (%), Pim-1(h)
In short: as §1

Question: Which results are given for CC(C)C(=O)Nc1nc2cc(-c3ccc4c(c3)c(C(=O)NC(C)c3ccccc3)cn4C)ccn2n1 (stereo not shown) [RI-962]?
Answer: activity at 10 µM [1]: 77%; activity at 10 µM [2]: 113%; activity at 10 µM [3]: 88%; activity at 10 µM [4]: 68%; activity at 10 µM [5]: 71%; activity at 10 µM [6]: 91%; activity at 10 µM [7]: 96%; activity at 10 µM [8]: 103%; activity at 10 µM [9]: 93%; activity at 10 µM [10]: 92%; activity at 10 µM [11]: 90%; activity at 10 µM [12]: 98%; activity at 10 µM [13]: 80%; activity at 10 µM [14]: 107%; activity at 10 µM [15]: 105%; activity at 10 µM [16]: 90%; activity at 10 µM [17]: 85%; activity at 10 µM [18]: 106%; activity at 10 µM [19]: 109%; activity at 10 µM [20]: 107%; activity at 10 µM [21]: 95%; activity at 10 µM [22]: 97%; activity at 10 µM [23]: 100%; activity at 10 µM [24]: 122%; activity at 10 µM [25]: 101%
